Measurements from article PMC13242511, “Disrupting Notch signalling by a small molecule inhibiting dihydroorotate dehydrogenase activity” (Scientific Reports, 2026).
Like-named read-outs stand apart in the source and are kept apart here.

Key:
[1] = test system: Notch signalling; assay: Notch reporter assay (12xCSL firefly luciferase / renilla luciferase, HEK293T Notch1ΔE reporter cell line clone #A1-11); type: cell-based; set-up: AUC Notch: scale not given here; conditions: for Bottom (Emax): Emax indicated independent from assay constraints, in % (unit assumed); for IC50 / activity at 10 µM / activity at 25 µM / activity: Homo sapiens, HEK-293T; for AUC Notch: area under the 14-point dose-response curve, replicates averaged; for activity: 1,25µM
Description: To identify novel Notch inhibitors in an unbiased manner, we generated a novel Notch reporter construct, which records the level of Notch signalling immediately downstream of receptor activation rather than further downstream in the signalling cascade, for example at the level of Hes and Hey proteins (Fig. 1B). […] The reporter construct carries piggy-bac sequences at both ends of the promoter-reporter cassette as well as cSH4 insulator elements to reduce transcriptional noise[21] and was transfected into HEK293T cells. To achieve a robust level of Notch receptor activity in the HEK293T reporter cell line and to confine the search for inhibitors to compounds affecting the receptor function and eliminating the need for ligand activation, a truncated ligand-independent version of the Notch1 receptor, mimicking an S2-cleaved Notch1 receptor (Notch1ΔE) and spontaneously activated by S3-cleavage[22] (Fig. 1C) was introduced into the cell line carrying the reporter construct (Fig. 1D). In addition, an HSV-TK-renilla luciferase plasmid was introduced into the cell line as an internal control for normalisation of the reporter expression (Fig. 1D).
A de novo Notch reporter construct, composed of six dimeric CSL binding sites linked to a basic b-globin promoter and followed by a firefly luciferase gene and a PEST degradation domain was synthesised (GeneArt). The construct was stably introduced into HEK293T cells, and zeocin (0.1 mg/ml) or Puromycin (0.05 mg/ml (ThermoFisher, cat #R25001, #A1113803) were used as selection markers. A clonal cell line (clone #A1) with robust renilla expression and enhanced firefly luciferase expression upon transient transfection of Notch1 ICD or Notch1ΔE constructs was selected, and a UB6 promoter-Notch1DE construct was stably introduced into this cell line using Blasticidin (0.1 mg/ml; ThermoFisher, cat #A1113903) as a selection marker. Stable cell lines were generated by serial dilution and only clonal colonies were selected for further evaluation. To measure luciferase reporter activity, cells were washed in cold PBS, detached, and collected in pre-warmed cell culture medium and centrifugated for five min at 200xg. The cell pellet was resuspended in medium, cells were counted, and 4,000 cells were seeded in each well of a white 384 well plate (Corning #3670) in 20 µl medium containing either DMSO or the GSI DAPT (N-[N-(3,5-Difluorophenacetyl)-L-alanyl]-S-phenylglycine t-butyl ester, Sigma-Aldrich, cat #565784-M) and incubated for 24 h. The efficacy of the reporter gene system was determined by monitoring the level of luciferase activation in the absence or presence of different amounts of DAPT in several cell clones. Luciferase activity was assessed using the dual-GLO luciferase detection kit from Promega (cat # E2920), following the manufacturer’s instructions. A minimum of two technical replicates were measured per clone using a SpectraMaxi3 plate reader (Molecular Devices). Reporter activity of different clones and in response to DAPT was assessed by normalising firefly (Notch activity) to renilla luciferase signals. Normalised signals of individual clones cultivated in DMSO were then compared to corresponding signals generated with DAPT-treated cells. The cell clone with the strongest signal to control ratio (DMSO to DAPT) was then selected for further exploration (clone #A1-11).
37,966 compounds were spotted by the compound center at SciLifeLab (https://www.scilifelab.se/) on a total of 120 plates (Greiner #781080) at a fixed concentration of 10 µM and the screening process spanned five consecutive sessions. The layout of each plate contained one column for DMSO and one for DAPT controls to determine the quality and reliability of the data. DAPT controls were spotted at 10 µM and DMSO was spotted in an equimolar volume. In addition, plates spotted with only DMSO were utilized to investigate the impact of plate effects before and after each session. […]

[2] = target: γ-secretase complex (Homo sapiens, UniProt P49768); assay: APP-C99 counter assay (GSI reporter assay); type: cell-based; set-up: AUC APP: scale not given here; conditions: for Hill-slope / curve fit information: 14p APP assay DR, bottom constrained to Emax of positive control LY-411575; for AUC APP: area under the 14-point dose-response curve, replicates averaged; for remaining activity at 10 µM / remaining activity at 25 µM / remaining activity at […]: 24 h, APP-C99 counter assay, read-out: 3p-DR in % of DMSO counter; for remaining activity at […]: 1,25µM
Method: To this end, we used a previously established reporter gene-based GSI assay (APP-C99) (Fig. 3A), which measures γ-secretase activity through cleavage of amyloid precursor protein (APP), another protein processed by the γ-secretase complex[24]
Plasmids for APP and luciferase are described in[24] and the renilla plasmid described above generated for this project was used to normalize firefly values. 24 h post transfection cells were seeded on compound plates and cells were cultivated for 24 h before luciferase signals were read, as described.
Two-fold concentrations of compounds were diluted in 10 µl cell culture medium and brought to one-fold by seeding 10 µl containing 4000 cells of the respective cell type on each well of a 384-well plate, as described above. Analogous to the previous assays, all plates contained one DMSO and DAPT control column with the Notch reporter cell line (#A1-11) and a DMSO only and Notch inhibitor control plate was read before the measuring the screening plates. In addition, DAPT and DMSO were spotted in a dose response fashion, and a minimum of four replicates were read. Dose-responses of compounds were recorded in triplicates for each concentration reading out the dual luciferase reporters, as described above. Dose response assays were read together in one session. To measure compound effects, the different assays dose–response curves were fitted using the log(inhibitor) vs. response – Variable slope (model: Y = Bottom + (Top–Bottom)/(1 + 10^((LogIC50-X)*HillSlope)) equation.
A DMSO plate was read before measuring luciferase activity of compound spotted plates. APP firefly luciferase reporter assays were read with a signal integration time of 0.1 s, instead of 0.5 s used for the Notch reporter to reduce signal overlap between wells. […] The area-under-the-curve (AUC) was calculated on dose–response curves using Graphpad Prism.

[3] = 14-point dose-response, Fig. 4, read-out: approximated IC50, Notch reporter assay
[4] = 14p Notch assay DR, bottom constrained to Emax of positive control DAPT, read-out: approximated IC50
[5] = 14p Notch assay DR, log10 value, bottom constrained to Emax of positive control DAPT, read-out: approximated LogIC50 (converted)
[6] = 10 µM, primary screen, 24 h, unit from Fig. 2 legend, read-out: Primary screen at 10 µM (Notch reporter signal)
[7] = 10 µM, three-dose confirmation screen, unit from Fig. 2 legend, read-out: Hit confirmation at 10 µM (Notch reporter signal)
[8] = 10µM, 3-point DR confirmation screen, Notch reporter assay, read-out: inhibitor ratio in % of DMSO in 3 point DR
[9] = 10 µM, sheet conf vs counter 10 µM, same values as 3-point DR confirmation screen, read-out: Confirmation screen
[10] = 25µM, 3-point DR confirmation screen, Notch reporter assay, read-out: inhibitor ratio in % of DMSO in 3 point DR
[11] = 25 µM, Notch reporter 3-point dose-confirmation assay, sheet "conf vs counter 25 µM", read-out: Confirmation screen
[12] = 3-point DR confirmation screen, Notch reporter assay, read-out: inhibitor ratio in % of DMSO in 3 point DR
[13] = overview in comparison to compound C, Supplemental Fig. 9

Row | Hill-slope [2] | AUC APP [2] | IC50 [1, 4] | IC50 [1, 5] | Compound | Bottom (Emax) ([1]; 14p Notch assay DR) | AUC Notch [1] | also measured
1 | -0.00462 | 411.0 |  |  | NC(=O)c1c(NC(=O)NC2CCCCC2)sc2c1CCCC2 [CBK431895] | 87.8 | 341.0 | IC50 [1, 3]: 33.5 µM
2 | 0.121 | 566.4 | 5 µM | 5.01 µM | Cc1ccccc1Nc1nc(N)nc(CN2CCCC(C(F)(F)F)C2)n1 (centres unmarked) [CBK305073] | 32.5 | 305.0 | activity at 10 µM [1, 6]: 39.6%; activity at 10 µM [1, 7]: 65.1%; activity at 10 µM [1, 8]: 65.1%; activity at 10 µM [1, 9]: 65.1%; activity at 25 µM [1, 10]: 48.4%; activity at 25 µM [1, 11]: 48.4%; activity [1, 12]: 102%; remaining activity at 10 µM [2]: 129%; remaining activity at 25 µM [2]: 156%; remaining activity at […] [2]: 92.5%
3 | -0.00263 | 662.9 | 3.2 µM | 3.16 µM | Cc1ccc(-c2noc([C@@H]3Cc4[nH]cnc4CN3C(=O)CCC(=O)O)n2)cc1 [CBK288958] | 57.4 | 600.0 | activity at 10 µM [1, 6]: 50.2%; activity at 10 µM [1, 7]: 49.6%; activity at 10 µM [1, 8]: 49.6%; activity at 10 µM [1, 9]: 49.6%; activity at 25 µM [1, 10]: 32.2%; activity at 25 µM [1, 11]: 32.2%; activity [1, 12]: 87.5%; remaining activity at 10 µM [2]: 115%; remaining activity at 25 µM [2]: 129%; remaining activity at […] [2]: 119%
4 | -1.0 | 698.8 |  |  | Cc1cc(C)c2[nH]c(C(=O)N[C@H](c3ccccc3)c3ccnn3C)c(C)c2c1 [CBK315984] | 96.7 | 607.0 | approximated IC50, Notch reporter assay ([1]; 14-point dose-response, Fig. 4): Indeterminate
5 | 0.0551 | 517.0 | > 40 µM | > 40 µM | COc1cccc(Nc2nc(-c3cccnc3)cn3ccnc23)c1 [CBK103068] | 69.8 | 335.0 | 
6 | 0.0761 | 538.6 | 5.1 µM | 5.01 µM | CCOc1ccccc1-c1ccccc1NC(=O)c1ccc2c(c1)ncn2C1CC1 [CBK285808] | 26.5 | 300.0 | activity at 10 µM [1, 6]: 35.1%; activity at 10 µM [1, 7]: 64.7%; activity at 10 µM [1, 8]: 64.7%; activity at 10 µM [1, 9]: 64.7%; activity at 25 µM [1, 10]: 45.7%; activity at 25 µM [1, 11]: 45.7%; activity [1, 12]: 102%; remaining activity at 10 µM [2]: 165%; remaining activity at 25 µM [2]: 197%; remaining activity at […] [2]: 113%
7 |  |  |  |  | CC1=C(C(=O)OC2CCCCC2)C(c2ccc([N+](=O)[O-])cc2)C2=C(CC(C)(C)CC2=O)N1 (centres unmarked) [FLI-06, reference compound] |  |  | reporter signal in % of DMSO ([1]; 10 µM, inhibitor controls, Supplemental Fig. 2A): 62%; Notch assay [1, 13]: active, potency n.d.; APP assay [2, 13]: active, potency n.d.
8 | -3.32e-11 | 515.8 |  |  | COc1ccc(-c2cn3ccnc3c(Nc3ccccc3)n2)cc1 [CBK066257] | 91.1 | 403.0 | curve fit information [2]: IC50 indeterminate
9 |  | 502.9 | 3 µM | 3.16 µM | O=C(Nc1nnc(-c2ccc3c(c2)OCCO3)o1)c1ccccc1F [CBK287405] | 15.0 | 288.0 | activity at 10 µM [1, 6]: 36.4%; activity at 10 µM [1, 7]: 44%; activity at 10 µM [1, 8]: 44%; activity at 10 µM [1, 9]: 44%; activity at 25 µM [1, 10]: 37.6%; activity at 25 µM [1, 11]: 37.6%; activity [1, 12]: 85.1%; curve fit information [2]: IC50 indeterminate; remaining activity at 10 µM [2]: 137%; remaining activity at 25 µM [2]: 153%; remaining activity at […] [2]: 124%
10 | -0.0106 | 480.2 |  |  | CC(C)C(=O)Nc1sc2c(c1C(=O)NCc1cccnc1)CCC2 [CBK306144] | ~ 92,84 | 357.0 | approximated IC50, Notch reporter assay ([1]; 14-point dose-response, Fig. 4): Indeterminate
11 | -0.6 | 444.5 |  |  | CCOC(=O)c1c(NC(=O)NCc2cccnc2)sc2c1CCC2 [CBK307585] | 71.6 | 338.0 | IC50 [1, 3]: 6.6 µM

Row | Compound | Hill-slope [2] | AUC APP [2] | IC50 [1, 4] | IC50 [1, 5] | Bottom (Emax) ([1]; 14p Notch assay DR) | AUC Notch [1] | also measured
12 | COc1ccc2[nH]c3c(c2c1)CCOC31CCN(Cc2ccccc2-c2ccccc2)CC1 [CBK040114] | 0.0153 | 713.8 | 1.3 µM | 1.26 µM | 45.9 | 576.0 | IC50 [1, 3]: 1.4 µM
13 | O=C1NC(c2cccnc2)Nc2sc3c(c21)CCCC3 (centres unmarked) [CBK072377] | 0.0091 | 497.7 |  |  | 89.1 | 364.0 | approximated IC50, Notch reporter assay ([1]; 14-point dose-response, Fig. 4): Indeterminate
14 | Fc1ccc2[nH]c3c(c2c1)CCOC31CCN(Cc2ccccc2-c2ccccc2)CC1 [CBK039913] | 0.0284 | 726.2 | 1.2 µM | 1.26 µM | 44.4 | 588.0 | 
